Data reported in the Kinase Knowledgebase extract (Sharma et al. 2016).

molecular target: ROCK2 (human) (UniProt O75116); test: Inhibition of ROCK2 Kinase Activity
Sequence (O75116 whole entry, looked up): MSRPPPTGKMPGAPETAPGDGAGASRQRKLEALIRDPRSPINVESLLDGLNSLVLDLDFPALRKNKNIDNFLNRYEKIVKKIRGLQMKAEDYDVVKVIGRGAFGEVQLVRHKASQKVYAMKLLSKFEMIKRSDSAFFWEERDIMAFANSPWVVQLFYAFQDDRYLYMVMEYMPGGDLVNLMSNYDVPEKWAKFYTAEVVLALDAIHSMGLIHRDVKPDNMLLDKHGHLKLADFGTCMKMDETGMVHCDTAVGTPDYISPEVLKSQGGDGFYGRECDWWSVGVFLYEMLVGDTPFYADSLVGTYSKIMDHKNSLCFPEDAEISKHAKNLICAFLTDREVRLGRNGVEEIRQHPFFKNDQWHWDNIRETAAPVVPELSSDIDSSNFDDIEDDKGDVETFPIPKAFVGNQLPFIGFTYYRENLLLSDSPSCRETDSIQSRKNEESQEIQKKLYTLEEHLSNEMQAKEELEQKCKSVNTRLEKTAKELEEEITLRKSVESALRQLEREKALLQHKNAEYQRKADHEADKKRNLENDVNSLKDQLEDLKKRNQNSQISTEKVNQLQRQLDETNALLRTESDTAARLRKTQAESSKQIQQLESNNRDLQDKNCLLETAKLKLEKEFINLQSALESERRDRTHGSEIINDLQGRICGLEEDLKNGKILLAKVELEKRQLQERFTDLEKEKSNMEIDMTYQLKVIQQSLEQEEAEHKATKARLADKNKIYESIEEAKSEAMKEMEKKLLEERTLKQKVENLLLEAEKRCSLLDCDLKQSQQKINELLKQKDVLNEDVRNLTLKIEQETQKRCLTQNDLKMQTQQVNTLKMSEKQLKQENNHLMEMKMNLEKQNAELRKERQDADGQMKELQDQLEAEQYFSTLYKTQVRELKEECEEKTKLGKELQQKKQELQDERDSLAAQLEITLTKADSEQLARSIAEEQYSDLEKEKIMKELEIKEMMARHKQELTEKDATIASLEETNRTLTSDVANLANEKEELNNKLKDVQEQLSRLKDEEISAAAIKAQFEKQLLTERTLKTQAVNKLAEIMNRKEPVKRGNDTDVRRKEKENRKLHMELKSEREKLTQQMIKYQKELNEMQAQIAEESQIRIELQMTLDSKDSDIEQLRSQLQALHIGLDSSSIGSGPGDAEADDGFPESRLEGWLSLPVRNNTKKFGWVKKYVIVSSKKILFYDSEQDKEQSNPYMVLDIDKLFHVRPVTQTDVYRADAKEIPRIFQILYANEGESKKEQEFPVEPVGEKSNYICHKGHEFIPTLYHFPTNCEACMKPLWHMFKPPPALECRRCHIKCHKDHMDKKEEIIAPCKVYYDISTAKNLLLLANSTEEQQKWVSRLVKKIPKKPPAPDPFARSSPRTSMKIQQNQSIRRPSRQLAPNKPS

SMILES | IC50 [µM]
NC(C(=O)NC1CCCCC1)c1ccc(C(=O)Nc2ccncc2)cc1 (stereo unspecified) | 0.5 to 5
CCCCCCCCS(=O)(=O)NCC(N)c1ccc(C(=O)Nc2ccncc2)cc1 (stereo unspecified) | 0.5 to 5
NC(C(=O)Nc1ccccc1)c1ccc(C(=O)Nc2ccncc2)cc1 (stereo unspecified) | 0.5 to 5
CN(CCO)C(=O)C(N)c1ccc(C(=O)Nc2ccncc2)cc1 (stereo unspecified) | 0.5 to 5
NC(C(=O)N1CCCC(CO)C1)c1ccc(C(=O)Nc2ccncc2)cc1 (stereo unspecified) | 0.5 to 5
NC(c1ccc(C(=O)Nc2ccncc2)cc1)C1CCCN1S(=O)(=O)c1ccccc1F (stereo unspecified) | 0.5 to 5
NC(C(=O)N1CC=C(c2ccc(F)cc2)CC1)c1ccc(C(=O)Nc2ccncc2)cc1 (stereo unspecified) | 0.5 to 5
CC1CCC(NC(=O)C(N)c2ccc(C(=O)Nc3ccncc3)cc2)CC1 (stereo unspecified) | 0.5 to 5
COc1ccc(CNC(=O)C(N)c2ccc(C(=O)Nc3ccncc3)cc2)cc1 (stereo unspecified) | < 0.5
NC(CNS(=O)(=O)c1cccc(-c2ccccc2)c1)c1ccc(C(=O)Nc2ccncc2)cc1 (stereo unspecified) | 0.5 to 5
NC(C(=O)NCc1ccncc1)c1ccc(C(=O)Nc2ccncc2)cc1 (stereo unspecified) | 0.5 to 5
NC(CNS(=O)(=O)c1cccc(Cl)c1)c1ccc(C(=O)Nc2ccncc2)cc1 (stereo unspecified) | < 0.5
NC(CC(=O)N1CCC(O)(c2ccccc2)CC1)c1ccc(C(=O)Nc2ccncc2)cc1 (stereo unspecified) | < 0.5
NC(CNS(=O)(=O)c1cccs1)c1ccc(C(=O)Nc2ccncc2)cc1 (stereo unspecified) | < 0.5
NC(CC(=O)N1CCCC1c1ccc(Cl)cc1)c1ccc(C(=O)Nc2ccncc2)cc1 (stereo unspecified) | < 0.5
NC(C(=O)N1CCN(c2ccccc2)CC1)c1ccc(C(=O)Nc2ccncc2)cc1 (stereo unspecified) | 0.5 to 5
CC1CN(C(=O)C(N)c2ccc(C(=O)Nc3ccncc3)cc2)CC(C)O1 (stereo unspecified) | 0.5 to 5
COc1ccc(S(=O)(=O)NCC(N)c2ccc(C(=O)Nc3ccncc3)cc2)cc1OC (stereo unspecified) | < 0.5
Cc1ccc(S(=O)(=O)NCC(N)c2ccc(C(=O)Nc3ccncc3)cc2)cc1 (stereo unspecified) | < 0.5
NC(C(=O)N1CCCC1c1cccc(F)c1)c1ccc(C(=O)Nc2ccncc2)cc1 (stereo unspecified) | < 0.5
NC(CC(=O)N1CCCCC1c1ccccc1)c1ccc(C(=O)Nc2ccncc2)cc1 (stereo unspecified) | < 0.5
NC(C(=O)N1CCc2ccccc2C1)c1ccc(C(=O)Nc2ccncc2)cc1 (stereo unspecified) | < 0.5
CC(NC(=O)C(N)c1ccc(C(=O)Nc2ccncc2)cc1)c1ccccc1 (stereo unspecified) | < 0.5
COc1ccc(S(=O)(=O)N(C)C[C@H](N)c2ccc(C(=O)Nc3ccncc3)cc2)cc1 | 5 to 50

Now from value to compound:

IC50 [µM] | SMILES
< 0.5 | NC(CC(=O)N1CCc2ccc(Cl)cc2C1)c1ccc(C(=O)Nc2ccncc2)cc1 (stereo unspecified)
< 0.5 | COc1ccc(Cl)cc1C1CCCCN1C(=O)CC(N)c1ccc(C(=O)Nc2ccncc2)cc1 (stereo unspecified)
< 0.5 | NC(CNS(=O)(=O)c1ccc(Cl)cc1)c1ccc(C(=O)Nc2ccncc2)cc1 (stereo unspecified)
< 0.5 | NC(CNS(=O)(=O)c1ccccc1Cl)c1ccc(C(=O)Nc2ccncc2)cc1 (stereo unspecified)
< 0.5 | NC(CC(=O)N1CCC(c2c[nH]c3ccccc23)CC1)c1ccc(C(=O)Nc2ccncc2)cc1 (stereo unspecified)
< 0.5 | CC1CC(C)CN(C(=O)C(N)c2ccc(C(=O)Nc3ccncc3)cc2)C1 (stereo unspecified)
< 0.5 | CCS(=O)(=O)NCC(N)c1ccc(C(=O)Nc2ccncc2)cc1 (stereo unspecified)
< 0.5 | CCC(NC(=O)C(N)c1ccc(C(=O)Nc2ccncc2)cc1)c1ccccc1 (stereo unspecified)
< 0.5 | NC(CNS(=O)(=O)c1cccc2nonc12)c1ccc(C(=O)Nc2ccncc2)cc1 (stereo unspecified)
< 0.5 | NC(CC(=O)N1CCCC1c1cccc(F)c1)c1ccc(C(=O)Nc2ccncc2)cc1 (stereo unspecified)
< 0.5 | NC(C(=O)NCc1cccc(Cl)c1)c1ccc(C(=O)Nc2ccncc2)cc1 (stereo unspecified)
< 0.5 | CCCCNNC(=O)C(N)c1ccc(C(=O)Nc2ccncc2)cc1 (stereo unspecified)
< 0.5 | NC(CC(=O)N1CCc2ccc(F)cc2C1)c1ccc(C(=O)Nc2ccncc2)cc1 (stereo unspecified)
< 0.5 | NC(CC(=O)N1CCCCC1c1ccc(F)cc1)c1ccc(C(=O)Nc2ccncc2)cc1 (stereo unspecified)
< 0.5 | NC(C(=O)NCc1ccccc1)c1ccc(C(=O)Nc2ccncc2)cc1 (stereo unspecified)
< 0.5 | NC(CC(=O)N1CCOCC1c1ccc(F)cc1)c1ccc(C(=O)Nc2ccncc2)cc1 (stereo unspecified)
< 0.5 | NC(CC(=O)N1CCOCC1c1ccc(Cl)cc1)c1ccc(C(=O)Nc2ccncc2)cc1 (stereo unspecified)
